{
  "source": "patent US11946028B2",
  "about": "“Fibrosis model on a chip” (The Trustees of the University of Pennsylvania, priority 2015, dated 2024)",
  "system": "human lung fibroblasts",
  "experiment": "Serum-induced fibrosis in biomimetic five-layer lung fibrosis model",
  "type": "cell-based",
  "details": "2 μM PP2 added to medium 24 hours after assembly, maintained for the study; 0.2% serum in the model; FIG. 20",
  "from_the_text": "The first and second channel slabs and the chamber slab of the model were formed using soft lithography techniques, in which the PDMS mixture was poured over the mold, and the slabs were allowed to cure. The microchannels were etched into each of the channel slabs, with the dimensions of 10 mm×1 mm×0.15 mm (length×width×height). The chamber was etched into the chamber slab, with the dimensions of 6 mm×3 mm×1 mm (length×width×height). See FIG. 9 for a picture of the five-layer model and FIG. 2A-2B for a schematic of the five-layer model.\nNext, the cellular physiology of the cell-lined fluidic channels with the gel layer of the five-layer model was examined (FIG. 11). In this instance, the upper channel contained human lung endothelial cells cultured with commercially available medium from the supplying vendor of the cells. The lower channel contained small airway epithelial cells with similar specific medium, both from same vendor. The gel was created by adding collagen to physiological aqueous buffer at a concentration of 2 mg/ml and kept at 4° C. Human lung fibroblasts (100 K cells/ml) were added to the gel during the liquid phase. The side of the membranes facing the chamber slab were treated with sulfo-sanpah to promote collagen/ECM anchorage. The lower channel slab, lower membrane, and chamber slab were stacked. The gel was then pipetted into the chamber. […]",
  "data": [
    {"smiles": "CC(C)(C)n1nc(-c2ccc(Cl)cc2)c2c(N)ncnc21", "note": "[PP2]", "values": [
      {"measurement": "effect on serum-induced fibrosis", "result": "reduced fibrosis"}
    ]}
  ]
}
